Consider 2 molecules from patent US20240228502A1, “2-PHENYLAMINO PYRROLOPYRIMIDINES AS ACK1 INHIBITORS” (H. LEE MOFFITT CANCER CENTER AND RESEARCH INSTITUTE, INC., priority 2021, published 2024).

One assay has as its system MDA-MB-231. Put plainly: Cell viability, MDA-MB-231. The class given is cell-based. The conditions noted are these: Homo sapiens, MDA-MB-231, MDA-MB-231.
The target in assay [1] is T1, ACK1 (Homo sapiens, UniProt Q07912). Kind of assay: DSF = Differential Scanning Fluorimetry, thermal shift. The class given is binding. On the technique in general: In DSF a fluorescence change marks the thermal transition of the protein.
T1 sequence (Q07912 whole entry): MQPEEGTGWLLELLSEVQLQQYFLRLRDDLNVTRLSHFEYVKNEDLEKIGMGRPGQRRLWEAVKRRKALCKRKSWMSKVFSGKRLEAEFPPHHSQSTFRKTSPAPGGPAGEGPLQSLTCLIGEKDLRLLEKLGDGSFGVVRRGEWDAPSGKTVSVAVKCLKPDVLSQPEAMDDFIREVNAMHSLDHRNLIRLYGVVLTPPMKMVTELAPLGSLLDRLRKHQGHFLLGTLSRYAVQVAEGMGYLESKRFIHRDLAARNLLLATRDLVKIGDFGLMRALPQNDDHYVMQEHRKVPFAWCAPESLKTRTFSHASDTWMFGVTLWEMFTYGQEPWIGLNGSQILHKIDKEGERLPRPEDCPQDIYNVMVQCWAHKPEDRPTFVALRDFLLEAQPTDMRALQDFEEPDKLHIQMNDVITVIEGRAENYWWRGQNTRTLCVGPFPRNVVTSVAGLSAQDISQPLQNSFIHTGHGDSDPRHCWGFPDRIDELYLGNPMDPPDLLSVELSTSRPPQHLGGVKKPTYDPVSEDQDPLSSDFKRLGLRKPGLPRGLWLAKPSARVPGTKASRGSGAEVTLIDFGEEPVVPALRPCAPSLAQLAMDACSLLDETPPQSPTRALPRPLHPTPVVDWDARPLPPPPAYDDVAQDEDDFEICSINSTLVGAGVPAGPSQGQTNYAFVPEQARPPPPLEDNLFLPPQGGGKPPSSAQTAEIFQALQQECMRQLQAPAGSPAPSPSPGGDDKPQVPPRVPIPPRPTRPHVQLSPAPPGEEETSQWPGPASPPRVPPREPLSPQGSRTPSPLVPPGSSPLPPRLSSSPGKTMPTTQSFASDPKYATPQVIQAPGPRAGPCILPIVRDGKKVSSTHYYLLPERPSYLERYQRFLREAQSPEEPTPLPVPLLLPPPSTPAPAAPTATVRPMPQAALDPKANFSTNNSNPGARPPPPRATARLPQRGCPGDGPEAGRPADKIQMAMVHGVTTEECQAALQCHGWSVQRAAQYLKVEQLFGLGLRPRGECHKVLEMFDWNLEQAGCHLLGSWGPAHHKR
The target of assay [2] is T1, ACK1. Put plainly: ACK1 inhibition (ACK1 IC50). In kind it is biochemical.
The test system of a further assay is UKE1. Put plainly: Cell viability, UKE1. To be noted: UKE1, UKE1. In kind it is cell-based.

pEC50, pIC50: −log10 of the molar value.

Consider `CC(C)S(=O)(=O)Nc1cccc(-n2ccc3cnc(Nc4ccc(N5CCN(C)CC5)c(F)c4)nc32)c1`, for which the pEC50 is 6.34 in the assay on MDA-MB-231 and 7.13 in the assay with UKE1. Further, the “DSF (ΔTm (° C.))” value at ACK1 [1] is 4.5 °C. The molecule also gave a pIC50 at ACK1 [2] greater than 6.60.

On to `COc1cc(N2CCN(C)CC2)c(F)cc1Nc1ncc2ccn(-c3ccc(N4CCCS4(=O)=O)cc3)c2n1`, for which the pEC50 in the assay on MDA-MB-231 was 5.40; in the assay on UKE1, 5.85. On ACK1 [1], the “DSF (ΔTm (° C.))” value was 5.2 °C. The molecule further had a pIC50 on ACK1 [2] greater than 6.60.

As a reminder, the pEC50 is the negative decadic logarithm of the EC50, by convention in mol/L. A high value points to a low EC50. For orientation: pIC50 means the IC50 on a negative log10 scale, so that one unit is a factor of ten. High values mean a small IC50, low ones a large IC50.
